# Assay results published in patent publication US20020155519A1 (priority 1997, published 2002).
# “Also recorded” adds a separate entry of the source.
# Tested on: human blood bacterium (HBB)
# Format: cell-based
# Conditions: not given
# Method: Normally 1 ml of serum was added to 9 ml of medium. Larger flasks with a proportionately larger amount of serum and medium are used to produce bacteria in quantity. Modulators might be added to some flasks in 10× or higher concentration (corresponding to addition of 1 ml or less). When examining the effect of modulators, control flasks were prepared similarly without the addition of the modulator. Levels were observed microscopically (inverted phase microscope, observing the number of organisms per field crudely or by actual count) after incubation, typically at several points in time.
# When multiple comparisons were done at once, they were done in 12 well or 24 well cell culture plates, most often the latter. With the latter, typically 1 ml of medium inoculated with serum is added to each well, with modulators added at 10× or higher concentration (0.1 ml or less). When comparisons are done in well plates, control wells without any additions are included. Levels were observed microscopically (inverted phase microscope) after incubation, typically at several points in time. The well plate cultures were also used for antibiotic sensitivity testing.
# These procedures are those known in the art and include uses of antibodies and DNA probes, Western and Southern blots, PCR and the diagnostic kits therefor. First, organisms can be quantified by culture. […] If a means is found to immobilize the bacteria to grow isolated colonies, counts will be more accurate. Quantification is used to follow the progress of treatment and to correlate HBB levels with specific disease syndromes. Quantification is used also for antibiotic sensitivity measurements, comparing the level of growth with antibiotic treatment to the level of growth without treatment. Such antibiotic sensitivity measurements establish the basis for the clinical choice of antibiotic drugs.
Molecule,antibiotic sensitivity of HBB strains/isolates in culture,"observed antibiotic and antifungal sensitivities (outcome, number of isolates)"
CC1(C)S[C@@H]2[C@H](NC(=O)[C@H](N)c3ccc(O)cc3)C(=O)N2[C@H]1C(=O)O [amoxicillin],less sensitivity,
CC[C@H]1OC(=O)[C@H](C)[C@@H](O[C@H]2C[C@@](C)(OC)[C@@H](O)[C@H](C)O2)[C@H](C)[C@@H](O[C@@H]2O[C@H](C)C[C@H](N(C)C)[C@H]2O)[C@](C)(O)C[C@@H](C)CN(C)[C@H](C)[C@@H](O)[C@]1(C)O [azothromycin],some strains show sensitivity; also recorded: often stimulate growth,no effect (6 isolates); also recorded: sensitive (7 isolates)
CC1=C(C(=O)O)N2C(=O)[C@@H](NC(=O)[C@H](N)c3ccc(O)cc3)[C@H]2SC1 [cefadroxil],,no effect (1 isolate)
CC1=C(C(=O)O)N2C(=O)[C@@H](NC(=O)[C@H](N)c3ccccc3)[C@H]2SC1 [cephalexin],,no effect (1 isolate)
O=C(O)c1cn(C2CC2)c2cc(N3CCNCC3)c(F)cc2c1=O [ciprofloxacin],Some strains are sensitive,no effect (5 isolates); also recorded: partially sensitive (1 isolate)

# Same assay, conditions: 2 μg/ml
row,Molecule,"observed antibiotic and antifungal sensitivities (outcome, number of isolates)"
1,NCC[C@H](O)C(=O)N[C@@H]1C[C@H](N)[C@@H](O[C@H]2O[C@H](CN)[C@@H](O)[C@H](O)[C@H]2O)[C@H](O)[C@H]1O[C@H]1O[C@H](CO)[C@@H](O)[C@H](N)[C@H]1O [amikacin],no effect (1 isolate)

# Same assay, conditions: 20 μg/ml
row,Molecule,"observed antibiotic and antifungal sensitivities (outcome, number of isolates)"
1,Nc1ccc(O)c(C(=O)O)c1 [5-aminosalicylic acid],no effect (4 isolates)

# Same assay, conditions: concentration not printed
row,Molecule,antibiotic sensitivity of HBB strains/isolates in culture
1,CCN(CC)CCCC(C)Nc1ccnc2cc(Cl)ccc12 (centres unmarked) [chloroquin],synergistic effect with a few isolates

# Tested on: human blood bacterium (HBB)
# Format: cell-based
# Conditions: not given
# Remark: another data set of the same source
Molecule,effect on HBB growth in culture,optimum concentration for stimulation of HBB growth [µg/mL],effect on reduction of cell wall-defective forms
OCCS [2-mercaptoethanol],no significant effect,,
CC(=O)N[C@@H](CS)C(=O)O [N-acetyl cysteine],Little or no stimulation or inhibition; also recorded: no significant effect,,
"NC12CC3CC(CC(C3)C1)C2 [amantadine, reference compound]",Little or no stimulation or inhibition,,
N.N.O=S(=O)(O)O [ammonium sulfate],Little or no stimulation or inhibition; also recorded: no effect,,
"[N-]=[N+]=[N-] [azide, reference compound]",little effect on growth,,
CCO [ethanol],Some stimulation of growth,,
OO [hydrogen peroxide],might also be stimulated,,
[Fe] [iron],stimulated,,
CC(C)CCO [isoamyl alcohol],Some stimulation of growth,,
[Mn+2] [manganese],stimulated,1,
CO [methanol],minimal or no stimulation of growth,,
CSCC[C@H](N)C(=O)O [methionine],appears to do so less consistently,,
CN(C)c1ccc2nc3ccc(=[N+](C)C)cc-3sc2c1 [methylene blue],Little or no stimulation or inhibition,,
C1COCCN1 [morpholine],slight stimulation,,
C[C@@H](O[C@H]1[C@H](O)[C@@H](CO)OC(O)[C@@H]1N)C(=O)O (some centres unmarked) [muramic acid],,,no effect
CCCCO [n-butanol],Some stimulation of growth,,
NCCCNCCCCNCCCN [spermine],Little or no stimulation or inhibition,,
(oxidized) arachidonate,might also be stimulated,,
mercury,possibly; also recorded: stimulated,,
titanium ethoxide,slight stimulation,,

# Same assay, conditions: 2 μg/ml
row,Molecule,effect on HBB growth in culture
1,C[N+](C)(C)C[C@H](O)CC(=O)[O-] [L-carnitine],Little or no stimulation or inhibition

# Same assay, conditions: 3 μg/ml
row,Molecule,effect on HBB growth in culture
1,NCCOP(=O)(O)O [phosphorylethanolamine],Little or no stimulation or inhibition

# Same assay, conditions: 4 μg/ml
row,Molecule,effect on HBB growth in culture
1,O=C(O)c1cc(=O)[nH]c(=O)[nH]1 [orotic acid],Little or no stimulation or inhibition

# Same assay, conditions: 10 μg/ml
row,Molecule,effect on HBB growth in culture
1,OCCS [2-mercaptoethanol],Little or no stimulation or inhibition
2,O[C@@H](CS)[C@@H](O)CS [dithiotheitol],Little or no stimulation or inhibition

# Same assay, conditions: 14 μg/ml
row,Molecule,effect on HBB growth in culture
1,O=BOB(O)OB(O)OB=O [borax],Little or no stimulation or inhibition
2,O=c1ccc2[n+]([O-])c3ccc(O)cc3oc-2c1 [resazurin],Little or no stimulation or inhibition
3,CCN(CC)CN(CC)CC [tetraethylmethylenediamine],slight stimulation

# Same assay, conditions: 20 μg/ml
row,Molecule,effect on HBB growth in culture
1,N[C@@H](CS)C(=O)O [cysteine],Little or no stimulation or inhibition
2,NCCS(=O)(=O)O [taurine],Little or no stimulation or inhibition

# Same assay, conditions: 20 μg/ml; listed as Cysteine
row,Molecule,effect on HBB growth in culture
1,N[C@@H](CS)C(=O)O [cysteine],appears to inhibit growth in some isolates

# Same assay, conditions: 1/14 saturated
row,Molecule,effect on HBB growth in culture
1,O=C(c1ccccc1)c1ccccc1 [benzophenone],slight stimulation
2,c1ccc(Nc2ccccc2)cc1 [diphenylamine],slight stimulation
3,dichlorophenylenediamine,Little or no stimulation or inhibition

# Same assay, conditions: added to ½ strength medium O or RPMI
row,Molecule,effect on HBB growth in culture
1,COC(C)=O [methyl acetate],minimal or no stimulation of growth
2,COP(=O)(OC)OC [trimethyl phosphate],minimal or no stimulation of growth
3,CN(C)C [trimethylamine],minimal or no stimulation of growth

# Same assay, conditions: addition of cell wall precursors
row,Molecule,effect on reduction of cell wall-defective forms
1,CC(=O)N[C@H]1C(O)O[C@H](CO)[C@@H](O)[C@@H]1O (some centres unmarked) [N-acetylglucosamine],no effect
2,CC(=O)N[C@H]1C(O)O[C@H](CO)[C@@H](O[C@@H]2O[C@H](CO)[C@H](O)[C@H](O)[C@H]2O)[C@@H]1O (some centres unmarked) [N-acetyllactoasamine],no effect
3,CC(=O)N[C@H]1C(O)O[C@H](CO)[C@@H](O)[C@@H]1O[C@H](C)C(=O)O (some centres unmarked) [N-acetylmuramic acid],no effect
4,N[C@H](CCC[C@H](N)C(=O)O)C(=O)O [diaminopimelic acid],no effect

# Same assay, conditions: concentration not printed
row,Molecule,effect on HBB growth in culture
1,CC(=O)N[C@H]1C(O)O[C@H](CO)[C@@H](O[C@@H]2O[C@H](CO)[C@H](O)[C@H](O)[C@H]2O)[C@@H]1O (some centres unmarked) [N-acetyllactoasamine],some stimulation of culture growth
2,[Cr] [chromium],no inhibition of bacterial growth
3,[Cu] [copper],stimulated
4,N[C@@H](CS)C(=O)O [cysteine],suppresses growth of some strains; also recorded: stimulates other strains
5,O[C@@H](CS)[C@@H](O)CS [dithiotheitol],no significant effect
6,O=C(CO)[C@@H](O)[C@H](O)[C@H](O)CO [fructose],support growth
7,OC[C@H]1O[C@@H](O[C@H]2[C@H](O)[C@@H](O)C(O)O[C@@H]2CO)[C@H](O)[C@@H](O)[C@H]1O (some centres unmarked) [lactose],support growth
8,[Mg+2] [magnesium],little effect on the growth
9,OC[C@H]1O[C@H](OCC2O[C@@H](O)[C@H](O)[C@@H](O)[C@@H]2O)[C@H](O)[C@@H](O)[C@H]1O (some centres unmarked) [meilibose],support growth
10,"CN(Cc1cnc2nc(N)nc(N)c2n1)c1ccc(C(=O)N[C@@H](CCC(=O)O)C(=O)O)cc1 [methotrexate, reference compound]",no inhibition
11,O=C(O)c1ccccn1 [picolinic acid],Little or no stimulation or inhibition
12,[I-].[K+] [potassium iodide],Little or no stimulation or inhibition
13,OC[C@H]1O[C@H](OC[C@H]2O[C@H](O[C@]3(CO)O[C@H](CO)[C@@H](O)[C@@H]3O)[C@H](O)[C@@H](O)[C@@H]2O)[C@H](O)[C@@H](O)[C@H]1O [raffinose],support growth
14,[Ag] [silver],stimulated
15,OC[C@H]1O[C@@](CO)(O[C@H]2O[C@H](CO)[C@@H](O)[C@H](O)[C@H]2O)[C@@H](O)[C@@H]1O [sucrose],support growth
16,NCCS(=O)(=O)O [taurine],no effect on cultures
17,[Sn] [tin],stimulated
18,[Zn] [zinc],suppresses the growth; also recorded: inhibited
19,chromium picolinate,Little or no stimulation or inhibition
20,dextran,support growth
21,silver proteinate,Little or no stimulation or inhibition

# Same assay, conditions: ⅕ saturated
row,Molecule,effect on HBB growth in culture
1,COC1=C(OC)C(=O)C(C/C=C(\C)CC/C=C(\C)CC/C=C(\C)CC/C=C(\C)CC/C=C(\C)CC/C=C(\C)CC/C=C(\C)CC/C=C(\C)CC/C=C(\C)CCC=C(C)C)=C(C)C1=O [ubiquinone (Q10)],slight stimulation
